Assay results reported in patent publication US20260262643A1, “HERBICIDAL BENZOXAZINES” (FMC CORPORATION, priority 2022, published 2026).

How the values were obtained:
barnyardgrass [1] = assay: Test C preemergence; type: in vivo, Echinochloa crusgalli
Procedure, shortened: (§1)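 Soil-applied (pre) and foliar (post, 1–2 leaf, 2–10 cm) sprays; surfactant-containing non-phytotoxic solvent vehicle; loam/sand substrate. Readout: visual % control at 10 d, greenhouse, versus untreated.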

blackgrass [2] = assay: Test C preemergence; type: in vivo, Alopecurus myosuroides
Procedure, shortened: as §1

corn [3] = assay: Test C preemergence; type: in vivo, Zea mays
Procedure, shortened: as §1

green foxtail [4] = assay: Test C preemergence; type: in vivo, Setaria viridis
Procedure, shortened: as §1

kochia [5] = assay: Test C preemergence; type: in vivo, Bassia scoparia
Procedure, shortened: as §1

oat, wild [6] = assay: Test C preemergence; type: in vivo, Avena fatua
Procedure, shortened: as §1

pigweed, palmer [7] = assay: Test C preemergence; type: in vivo, Amaranthus palmeri
Procedure, shortened: as §1

ragweed [8] = assay: Test C preemergence; type: in vivo, Ambrosia artemisiifolia
Procedure, shortened: as §1

ryegrass, Italian [9] = assay: Test C preemergence; type: in vivo, Lolium multiflorum
Procedure, shortened: as §1

soybean [10] = assay: Test C preemergence; type: in vivo, Glycine max
Procedure, shortened: as §1

wheat [11] = assay: Test C preemergence; type: in vivo, Triticum aestivum
Procedure, shortened: as §1

barnyardgrass [12] = assay: Test C postemergence; type: in vivo, Echinochloa crusgalli; settings: 10 days, 0 to 100 scale (0 no effect, 100 complete control)
Procedure, shortened: as §1

blackgrass [13] = assay: Test C postemergence; type: in vivo, Alopecurus myosuroides; settings: 10 days, 0 to 100 scale (0 no effect, 100 complete control)
Procedure, shortened: as §1

corn [14] = assay: Test C postemergence; type: in vivo, Zea mays; settings: 10 days, 0 to 100 scale (0 no effect, 100 complete control)
Procedure, shortened: as §1

green foxtail [15] = assay: Test C postemergence; type: in vivo, Setaria viridis; settings: 10 days, 0 to 100 scale (0 no effect, 100 complete control)
Procedure, shortened: as §1

kochia [16] = assay: Test C postemergence; type: in vivo, Bassia scoparia; settings: 10 days, 0 to 100 scale (0 no effect, 100 complete control)
Procedure, shortened: as §1

oat, wild [17] = assay: Test C postemergence; type: in vivo, Avena fatua; settings: 10 days, 0 to 100 scale (0 no effect, 100 complete control)
Procedure, shortened: as §1

pigweed, palmer [18] = assay: Test C postemergence; type: in vivo, Amaranthus palmeri; settings: 10 days, 0 to 100 scale (0 no effect, 100 complete control)
Procedure, shortened: as §1

ragweed [19] = assay: Test C postemergence; type: in vivo, Ambrosia artemisiifolia; settings: 10 days, 0 to 100 scale (0 no effect, 100 complete control)
Procedure, shortened: as §1

ryegrass, Italian [20] = assay: Test C postemergence; type: in vivo, Lolium multiflorum; settings: 10 days, 0 to 100 scale (0 no effect, 100 complete control)
Procedure, shortened: as §1

soybean [21] = assay: Test C postemergence; type: in vivo, Glycine max; settings: 10 days, 0 to 100 scale (0 no effect, 100 complete control)
Procedure, shortened: as §1

wheat [22] = assay: Test C postemergence; type: in vivo, Triticum aestivum; settings: 10 days, 0 to 100 scale (0 no effect, 100 complete control)
Procedure, shortened: as §1

galium = assay: Test C postemergence; type: in vivo, Galium aparine; settings: 10 days, 0 to 100 scale (0 no effect, 100 complete control)
Procedure, shortened: as §1

horseweed = assay: Test C postemergence; type: in vivo, Erigeron canadensis; settings: 10 days, 0 to 100 scale (0 no effect, 100 complete control)
Procedure, shortened: as §1

barnyardgrass [23] = assay: Test D flooded paddy test; type: in vivo, Echinochloa crus-galli; settings: 250 g ai/ha, applied to paddy water, visual rating after 13 to 14 days, scale 0 to 100 (0 no effect, 100 complete control)
Procedure, shortened: (§2)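 Plants at the 2-leaf stage were grown in pots flooded to 3 cm, and compound was applied directly into the paddy water, with depth kept throughout. After 13–14 days in a greenhouse, injury was rated visually against untreated controls on a 0–100 scale (100 = complete control); a dash means not tested.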

ducksalad = assay: Test D flooded paddy test; type: in vivo, Heteranthera limosa; settings: 250 g ai/ha, applied to paddy water, visual rating after 13 to 14 days, scale 0 to 100 (0 no effect, 100 complete control)
Procedure, shortened: as §2

rice = assay: Test D flooded paddy test; type: in vivo, Oryza sativa; settings: 250 g ai/ha, applied to paddy water, visual rating after 13 to 14 days, scale 0 to 100 (0 no effect, 100 complete control)
Procedure, shortened: as §2

sedge, umbrella = assay: Test D flooded paddy test; type: in vivo, Cyperus difformis; settings: 250 g ai/ha, applied to paddy water, visual rating after 13 to 14 days, scale 0 to 100 (0 no effect, 100 complete control)
Procedure, shortened: as §2

[24] = 500 g ai/ha, preemergence, 0 to 100 scale (0 no effect, 100 complete control)
[25] = Preemergence, 125 g ai/ha, 0 to 100 scale, 0 no effect, 100 complete control

CCOC[C@H]1CN(C(=O)c2cc(-n3cnc(C4CCC4)n3)cc3c2OCCO3)c2cccc(Cl)c2O1 [Compound 386]
0: Blackgrass plant response rating (blackgrass [2]; [24]) | Plant response rating, Blackgrass (blackgrass [2]; [25]) | Plant response rating, Corn (corn [3]; [25]) | Wheat plant response rating (wheat [11]; [24]) | Plant response rating, Wheat (wheat [11]; [25]) | Plant response rating, Blackgrass (blackgrass [13]; Postemergence, 125 g ai/ha) | Plant response rating, Oat, Wild (oat, wild [17]; 500 g ai/ha, postemergence) | Plant response rating, Oat, Wild (oat, wild [17]; Postemergence, 125 g ai/ha) | Plant response rating, Barnyardgrass (Flood) (barnyardgrass [23]) | Plant response rating, Ducksalad (Flood) (ducksalad) | Plant response rating, Rice (Flood) (rice) | Plant response rating, Sedge, Umbrella (Flood) (sedge, umbrella)
10: Plant response rating, Corn (corn [14]; Postemergence, 125 g ai/ha) | Plant response rating, Foxtail, Green (green foxtail [15]; Postemergence, 125 g ai/ha) | Plant response rating, Wheat (wheat [22]; 500 g ai/ha, postemergence) | Plant response rating, Wheat (wheat [22]; Postemergence, 125 g ai/ha)
100: Pigweed, Palmer plant response rating (pigweed, palmer [7]; [24]) | Plant response rating, Pigweed, Palmer (pigweed, palmer [7]; [25]) | Soybean plant response rating (soybean [10]; [24]) | Plant response rating, Pigweed, Palmer (pigweed, palmer [18]; 500 g ai/ha, postemergence) | Plant response rating, Soybean (soybean [21]; 500 g ai/ha, postemergence) | Plant response rating, Soybean (soybean [21]; Postemergence, 125 g ai/ha) | Plant response rating, Galium (galium; 500 g ai/ha, postemergence) | Plant response rating, Galium (galium; Postemergence, 125 g ai/ha)
90: Foxtail, Green plant response rating (green foxtail [4]; [24]) | Plant response rating, Kochia (kochia [16]; 500 g ai/ha, postemergence)
50: Plant response rating, Ryegrass, Italian (ryegrass, Italian [9]; [25]) | Plant response rating, Soybean (soybean [10]; [25]) | Plant response rating, Blackgrass (blackgrass [13]; 500 g ai/ha, postemergence) | Plant response rating, Foxtail, Green (green foxtail [15]; 500 g ai/ha, postemergence) | Plant response rating, Ragweed (ragweed [19]; Postemergence, 125 g ai/ha)
20: Corn plant response rating (corn [3]; [24]) | Plant response rating, Ragweed (ragweed [8]; [25]) | Plant response rating, Barnyardgrass (barnyardgrass [12]; Postemergence, 125 g ai/ha) | Plant response rating, Corn (corn [14]; 500 g ai/ha, postemergence)
40: Plant response rating, Barnyardgrass (barnyardgrass [1]; [25]) | Plant response rating, Foxtail, Green (green foxtail [4]; [25]) | Oat, Wild plant response rating (oat, wild [6]; [24]) | Plant response rating, Ryegrass, Italian (ryegrass, Italian [20]; Postemergence, 125 g ai/ha)
60: Plant response rating, Ryegrass, Italian (ryegrass, Italian [20]; 500 g ai/ha, postemergence) | Plant response rating, Horseweed (horseweed; 500 g ai/ha, postemergence)
80: Ragweed plant response rating (ragweed [8]; [24]) | Ryegrass, Italian plant response rating (ryegrass, Italian [9]; [24]) | Plant response rating, Kochia (kochia [16]; Postemergence, 125 g ai/ha) | Plant response rating, Pigweed, Palmer (pigweed, palmer [18]; Postemergence, 125 g ai/ha) | Plant response rating, Ragweed (ragweed [19]; 500 g ai/ha, postemergence)
30: Plant response rating, Oat, Wild (oat, wild [6]; [25]) | Plant response rating, Barnyardgrass (barnyardgrass [12]; 500 g ai/ha, postemergence) | Plant response rating, Horseweed (horseweed; Postemergence, 125 g ai/ha)
70: Barnyardgrass plant response rating (barnyardgrass [1]; [24]) | Kochia plant response rating (kochia [5]; [24]) | Plant response rating, Kochia (kochia [5]; [25])
